From US6618679B2, “Methods for analysis of gene expression” (priority 2000, dated 2003)

Tested on: Hep G2 (human hepatocellular carcinoma)
Assay: Non-lethal concentration range for chemical exposure of Hep G2 cells
Assay type: cell-based
Description: The hepatocyte cell line, Hep G2 (human hepatocellular carcinoma, obtained from the American Type Culture Collection, Rockville Md., ATCC#HB-8065), was used to evaluate the effects of various chemicals on expression of a set of genes known to be involved in cellular toxicological responses. The cells were routinely maintained in T75 flasks in Eagle's MEM medium (with non-essential amino acids, sodium pyruvate, and Earle's salts) and 10% fetal bovine serum at 37° C. in a humidified atmosphere of 5% CO2. The chemicals used in exposure experiments included cadmium chloride (CdCl2) and methyl methane sulfonate (MMS). CdCl2 is a strong inducer of metallothionein, a metal-binding protein, and is known to be carcinogenic and capable of interfering with DNA repair. MMS is an alkylating agent that induces DNA damage. Dilutions of these compounds were prepared from concentrated stocks obtained from Aldrich Chemical Company (Milwaukee, Wis.). Water was used as the solvent control in dosing studies. […] These concentration ranges were empirically determined to not be lethal to cells for the duration of the exposure period. […] Cell number was quantitated using a dye incorporation assay, CyQUANT from Molecular Probes (Eugene, Oreg.).

| Structure (SMILES) | lethality to cells for the duration of the exposure period (final concentrations 10^-4M to 10^-6M CdCl2, 3 hours exposure) | lethality to cells for the duration of the exposure period (final concentrations 0.5 mM to 2 mM MMS, 3 hours exposure) |
| --- | --- | --- |
| [Cl][Cd][Cl] [CdCl2, cadmium chloride] | not be lethal |  |
| COS(C)(=O)=O [MMS, methyl methane sulfonate] |  | not be lethal |
